From patent publication US10670605B2, “Cysteine reactive probes and uses thereof” (The Scripps Research Institute, priority 2015, dated 2020)
One block for each molecule: values may come before it.

How the values were obtained:
Test in all cases: Competitive isoTOP-ABPP, cell lysates
Type in all cases: binding
[1] = biological target: T1, DDX59 C453 (Q5T1V6) (Homo sapiens, UniProt Q5T1V6); settings: for R value (DMSO/fragment) / isoTOP-ABPP ratio, Q5T1V6_C453: 500 μM; for isoTOP-ABPP reactivity profile ratio, Q5T1V6_C453: 500 μm
T1 sequence (Q5T1V6 1-619): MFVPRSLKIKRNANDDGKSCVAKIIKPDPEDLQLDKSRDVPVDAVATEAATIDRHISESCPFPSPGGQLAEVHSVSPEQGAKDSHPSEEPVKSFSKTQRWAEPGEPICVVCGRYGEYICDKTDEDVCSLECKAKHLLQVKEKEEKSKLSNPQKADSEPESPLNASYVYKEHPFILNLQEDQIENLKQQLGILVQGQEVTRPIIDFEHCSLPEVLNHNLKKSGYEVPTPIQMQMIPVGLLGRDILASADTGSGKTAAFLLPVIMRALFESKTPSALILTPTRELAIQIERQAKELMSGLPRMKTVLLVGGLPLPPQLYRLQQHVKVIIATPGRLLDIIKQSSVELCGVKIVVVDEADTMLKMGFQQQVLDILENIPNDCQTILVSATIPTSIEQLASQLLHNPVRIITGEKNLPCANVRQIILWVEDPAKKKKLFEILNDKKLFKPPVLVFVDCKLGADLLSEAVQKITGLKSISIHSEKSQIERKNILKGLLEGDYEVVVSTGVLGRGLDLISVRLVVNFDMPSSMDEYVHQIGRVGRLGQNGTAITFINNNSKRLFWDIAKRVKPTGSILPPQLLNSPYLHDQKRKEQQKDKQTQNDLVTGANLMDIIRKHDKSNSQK

[2] = biological target: EP300 C1738 (Q09472) (Homo sapiens, UniProt Q09472); settings: for isoTOP-ABPP reactivity profile ratio, Q09472_C1738: 500 μm, in-vitro_ramos_231
[3] = biological target: T2, VCPIP1 C219 (Q96JH7) (Homo sapiens, UniProt Q96JH7); settings: for R value (DMSO/fragment): 500 μM; for isoTOP-ABPP reactivity ratio, Q96JH7_C219 / isoTOP-ABPP reactivity profile ratio, Q96JH7_C219: 500 μm, in-vitro_ramos
T2 sequence (Q96JH7 1-1222): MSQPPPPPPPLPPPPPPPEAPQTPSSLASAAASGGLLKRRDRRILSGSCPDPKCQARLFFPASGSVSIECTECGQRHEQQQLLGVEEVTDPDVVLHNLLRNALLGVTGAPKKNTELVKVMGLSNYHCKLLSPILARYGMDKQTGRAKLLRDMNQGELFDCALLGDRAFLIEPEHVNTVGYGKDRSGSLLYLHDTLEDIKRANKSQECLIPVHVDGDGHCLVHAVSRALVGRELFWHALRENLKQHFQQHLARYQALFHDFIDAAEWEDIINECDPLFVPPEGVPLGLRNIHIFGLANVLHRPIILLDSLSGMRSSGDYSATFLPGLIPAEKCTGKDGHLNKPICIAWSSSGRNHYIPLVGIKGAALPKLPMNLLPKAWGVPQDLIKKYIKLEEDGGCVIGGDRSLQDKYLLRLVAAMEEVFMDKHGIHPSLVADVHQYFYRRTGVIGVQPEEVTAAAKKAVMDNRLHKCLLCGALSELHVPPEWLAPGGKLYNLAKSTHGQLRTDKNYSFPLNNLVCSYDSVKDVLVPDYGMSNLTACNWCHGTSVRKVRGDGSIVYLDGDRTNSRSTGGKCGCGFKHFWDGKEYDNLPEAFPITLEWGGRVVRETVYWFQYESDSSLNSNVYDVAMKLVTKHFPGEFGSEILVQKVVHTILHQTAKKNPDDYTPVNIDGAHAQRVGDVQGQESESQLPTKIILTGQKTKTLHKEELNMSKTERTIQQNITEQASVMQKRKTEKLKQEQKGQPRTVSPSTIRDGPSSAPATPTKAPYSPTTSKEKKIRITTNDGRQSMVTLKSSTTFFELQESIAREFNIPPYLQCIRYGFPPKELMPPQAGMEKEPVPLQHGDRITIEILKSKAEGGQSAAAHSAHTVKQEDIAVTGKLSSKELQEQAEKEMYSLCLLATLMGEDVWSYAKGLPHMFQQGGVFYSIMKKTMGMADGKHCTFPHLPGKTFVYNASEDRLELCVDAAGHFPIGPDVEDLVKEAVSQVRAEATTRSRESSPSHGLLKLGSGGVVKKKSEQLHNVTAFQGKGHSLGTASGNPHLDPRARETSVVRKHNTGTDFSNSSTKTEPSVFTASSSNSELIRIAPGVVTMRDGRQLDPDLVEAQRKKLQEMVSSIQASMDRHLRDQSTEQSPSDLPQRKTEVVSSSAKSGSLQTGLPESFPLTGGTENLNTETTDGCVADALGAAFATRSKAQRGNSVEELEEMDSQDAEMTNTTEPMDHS

Chain of EP300 C1738 (Q09472) (Q09472 whole entry, the tested form may be a part): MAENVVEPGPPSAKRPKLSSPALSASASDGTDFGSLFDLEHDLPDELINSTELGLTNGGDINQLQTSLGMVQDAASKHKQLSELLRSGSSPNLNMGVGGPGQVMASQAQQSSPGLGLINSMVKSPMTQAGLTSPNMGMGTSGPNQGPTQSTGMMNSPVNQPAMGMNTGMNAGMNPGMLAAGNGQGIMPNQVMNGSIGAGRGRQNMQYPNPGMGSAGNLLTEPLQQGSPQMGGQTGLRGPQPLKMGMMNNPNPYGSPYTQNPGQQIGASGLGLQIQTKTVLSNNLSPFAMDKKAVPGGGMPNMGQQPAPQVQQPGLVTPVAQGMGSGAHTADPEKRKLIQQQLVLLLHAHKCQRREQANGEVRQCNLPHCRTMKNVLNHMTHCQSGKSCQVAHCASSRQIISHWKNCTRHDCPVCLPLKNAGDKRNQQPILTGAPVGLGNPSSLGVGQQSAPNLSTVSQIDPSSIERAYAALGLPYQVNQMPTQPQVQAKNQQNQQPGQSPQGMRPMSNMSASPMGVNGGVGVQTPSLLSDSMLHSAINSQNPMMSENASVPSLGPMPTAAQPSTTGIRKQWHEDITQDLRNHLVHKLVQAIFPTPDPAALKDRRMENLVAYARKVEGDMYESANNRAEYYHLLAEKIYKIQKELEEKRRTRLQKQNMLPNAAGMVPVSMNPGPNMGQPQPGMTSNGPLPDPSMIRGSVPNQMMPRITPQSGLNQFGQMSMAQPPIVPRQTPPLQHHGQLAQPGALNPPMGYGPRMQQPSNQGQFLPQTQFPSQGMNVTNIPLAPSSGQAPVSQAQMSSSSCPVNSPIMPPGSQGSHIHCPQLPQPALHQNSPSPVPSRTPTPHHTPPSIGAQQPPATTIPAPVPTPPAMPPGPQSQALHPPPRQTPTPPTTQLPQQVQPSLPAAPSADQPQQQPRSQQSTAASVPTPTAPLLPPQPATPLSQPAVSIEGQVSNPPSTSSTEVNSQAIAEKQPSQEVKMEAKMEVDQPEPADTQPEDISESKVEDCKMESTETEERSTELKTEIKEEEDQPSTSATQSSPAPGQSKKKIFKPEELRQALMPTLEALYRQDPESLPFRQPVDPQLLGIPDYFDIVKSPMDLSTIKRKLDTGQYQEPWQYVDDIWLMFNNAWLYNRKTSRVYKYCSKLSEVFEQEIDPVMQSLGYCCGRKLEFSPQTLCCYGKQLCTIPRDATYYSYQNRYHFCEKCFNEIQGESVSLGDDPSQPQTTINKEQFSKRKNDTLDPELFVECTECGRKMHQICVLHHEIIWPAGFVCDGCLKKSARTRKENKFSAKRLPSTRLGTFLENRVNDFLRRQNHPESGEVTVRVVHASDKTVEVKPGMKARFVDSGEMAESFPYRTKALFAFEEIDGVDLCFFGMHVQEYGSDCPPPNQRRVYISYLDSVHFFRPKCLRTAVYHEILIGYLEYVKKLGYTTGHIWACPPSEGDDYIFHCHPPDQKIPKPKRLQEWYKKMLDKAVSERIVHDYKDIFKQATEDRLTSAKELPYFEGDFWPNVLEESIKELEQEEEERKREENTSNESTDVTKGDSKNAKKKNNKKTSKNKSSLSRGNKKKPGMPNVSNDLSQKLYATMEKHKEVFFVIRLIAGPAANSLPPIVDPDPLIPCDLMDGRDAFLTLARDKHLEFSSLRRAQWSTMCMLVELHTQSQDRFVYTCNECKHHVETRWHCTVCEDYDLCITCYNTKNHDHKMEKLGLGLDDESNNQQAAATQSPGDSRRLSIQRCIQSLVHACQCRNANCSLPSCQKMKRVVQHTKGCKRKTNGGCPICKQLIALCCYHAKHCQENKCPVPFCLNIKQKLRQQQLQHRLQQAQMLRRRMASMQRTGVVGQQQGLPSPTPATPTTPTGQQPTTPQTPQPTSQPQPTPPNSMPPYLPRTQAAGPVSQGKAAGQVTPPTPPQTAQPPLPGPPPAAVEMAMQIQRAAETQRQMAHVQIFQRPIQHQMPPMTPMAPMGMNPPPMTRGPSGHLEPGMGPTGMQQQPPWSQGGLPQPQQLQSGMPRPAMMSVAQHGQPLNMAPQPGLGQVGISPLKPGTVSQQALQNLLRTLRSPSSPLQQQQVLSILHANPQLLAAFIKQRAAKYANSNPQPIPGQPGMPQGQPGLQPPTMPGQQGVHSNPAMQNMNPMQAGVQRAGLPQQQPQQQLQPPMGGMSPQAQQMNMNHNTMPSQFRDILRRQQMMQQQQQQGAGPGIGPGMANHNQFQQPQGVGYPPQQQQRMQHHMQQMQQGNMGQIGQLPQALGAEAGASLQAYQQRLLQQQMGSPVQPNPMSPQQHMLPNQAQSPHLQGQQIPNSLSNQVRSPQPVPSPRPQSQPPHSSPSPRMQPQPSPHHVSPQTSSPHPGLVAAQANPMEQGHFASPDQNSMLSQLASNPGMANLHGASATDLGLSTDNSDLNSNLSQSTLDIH

SMILES: C=CC(=O)N(c1ccccc1)c1ccc(Br)cc1 [compound 5]
- isoTOP-ABPP ratio, Q09472_C1738 ([2]; 500 μM, invitro, ramos): 20.0

SMILES: C=CC(=O)N(Cc1cccnc1)c1ccc(Oc2ccccc2)c(C(F)(F)F)c1 [compound 15]
- isoTOP-ABPP ratio (reactivity profile), Q96JH7_C219 ([3]; 500 μm in-vitro ramos): 1.3

SMILES: O=C(CCl)N1CCC(C(O)(c2ccccc2)c2ccccc2)CC1 [compound 20]
- isoTOP-ABPP ratio (reactivity profile), Q09472_C1738 ([2]; 500 μm in-vitro ramos): 3.2
- isoTOP-ABPP ratio (reactivity profile), Q96JH7_C219 ([3]; 500 μm in-vitro ramos): 1.2

SMILES: CC(Br)C(=O)Nc1cc(C(F)(F)F)cc(C(F)(F)F)c1 (centres unmarked) [compound 24]
- isoTOP-ABPP ratio (reactivity profile), Q5T1V6_C453 ([1]; 500 μm in-vitro ramos): 1.7
- isoTOP-ABPP ratio (reactivity profile), Q96JH7_C219 ([3]; 500 μm in-vitro ramos): 1.2

SMILES: C=CC(=O)N(Cc1cccnc1)c1cc(C(F)(F)F)cc(C(F)(F)F)c1 [compound 31]
- isoTOP-ABPP reactivity ratio, Q96JH7_C219 [3]: 1.0

SMILES: C=CC(=O)Nc1cc(F)c(N2CCN(C(=O)OC(C)(C)C)CC2)c(F)c1 [compound 38]
- isoTOP-ABPP reactivity ratio, Q96JH7_C219 [3]: 1.8

SMILES: C=CC(=O)Nc1cc(C)c(Br)cc1C [compound 40]
- isoTOP-ABPP reactivity ratio, Q96JH7_C219 [3]: 1.9

SMILES: N#CC(=Cc1ccc(-c2ccccc2Cl)o1)C(N)=O [compound 42]
- isoTOP-ABPP reactivity profile ratio, Q5T1V6_C453 ([1]; in-vitro_ramos): 1.0

The remaining lines, values ahead:

- R value (DMSO/fragment) ([1]; in vitro, MDA-MB-231): 20.0
- R value (DMSO/fragment) ([1]; invitro, ramos): 20.0
- R value (DMSO/fragment) ([2]; 500 μM, invitro, ramos): 12.7
- R value (DMSO/fragment) ([3]; invitro, ramos): 1.1
SMILES: COc1ccc2c(c1)CCCN2C(=O)CCl [compound 2]

- R value (DMSO/fragment) ([1]; in vitro, MDA-MB-231): 20.0
- R value (DMSO/fragment) ([3]; in vitro, MDA-MB-231): 20.0
- R value (DMSO/fragment) ([3]; invitro, ramos): 15.1
SMILES: O=C(CCl)Nc1cc(C(F)(F)F)cc(C(F)(F)F)c1 [compound 3]

- isoTOP-ABPP ratio, Q5T1V6_C453 ([1]; invitro, 231): 20.0
SMILES: Cn1cc(S(=O)(=O)N2CCOCC2)cc1C(=O)NC(=O)CCl [compound 11]

- isoTOP-ABPP ratio, Q5T1V6_C453 ([1]; invitro, ramos): 1.4
- isoTOP-ABPP ratio, Q09472_C1738 ([2]; 500 μM, invitro, ramos): 0.7
SMILES: O=C(CCl)NCCc1c[nH]c2ccccc12 [compound 13]

- isoTOP-ABPP ratio (reactivity profile), Q5T1V6_C453 ([1]; 500 μm in-vitro ramos_231): 0.9
- isoTOP-ABPP ratio (reactivity profile), Q09472_C1738 ([2]; 500 μm in-vitro ramos_231): 1.6
SMILES: CC(Cl)C(=O)Nc1cc(C(F)(F)F)cc(C(F)(F)F)c1 (centres unmarked) [compound 25]

- isoTOP-ABPP ratio (reactivity profile), Q5T1V6_C453 ([1]; 500 μm in-vitro ramos_231): 1.0
- isoTOP-ABPP ratio (reactivity profile), Q09472_C1738 ([2]; 500 μm in-vitro ramos_231): 1.0
- isoTOP-ABPP ratio (reactivity profile), Q96JH7_C219 ([3]; 500 μm in-vitro ramos_231): 1.7
SMILES: CC(C)CCOCCNC(=O)CCl [compound 27]

- isoTOP-ABPP ratio (reactivity profile), Q09472_C1738 ([2]; 500 μm in-vitro ramos_231): 1.3
SMILES: O=C(CCl)N1CCN(CC(=O)N2CCOCC2)CC1 [compound 29]

- isoTOP-ABPP reactivity profile ratio, Q5T1V6_C453 ([1]; in-vitro_ramos_231): 20.0
- isoTOP-ABPP reactivity profile ratio, Q09472_C1738 [2]: 2.2
SMILES: COc1cc(NC(=O)CCl)cc(OC)c1 [compound 43]

- isoTOP-ABPP reactivity profile ratio, Q5T1V6_C453 ([1]; in-vitro_ramos): 1.8
- isoTOP-ABPP reactivity profile ratio, Q96JH7_C219 [3]: 2.3
SMILES: O=C(CCl)Nc1cccc2ncccc12 [compound 51]

- isoTOP-ABPP reactivity profile ratio, Q09472_C1738 [2]: 1.1
- isoTOP-ABPP reactivity profile ratio, Q96JH7_C219 [3]: 1.6
SMILES: O=C(CCl)Nc1ccc(-c2ccccc2)cc1 [compound 52]
